This passage reports ED50 and MIC results from ChEMBL document CHEMBL1150475, “Synthesis and biological activity of new optically active 2-oxaisocephems: 3-(N-alkylpyridinium-4-thio)methyl derivatives” (1994).

The species named for test [1] is Mus musculus. Description: Antibacterial activity against mice infected with Escherichia coli No.29 challenged with a dose of 1.35*10e6 cells/mouse. It is filed as functional.
The species named for test [2] is Mus musculus. Description: Antibacterial activity against mice infected with MRSA 5129 challenged with a dose of 1.31*10e8 cells/mouse. The format is functional.
Test [3] concerns Escherichia coli. Description: Antibacterial activity against Escherichia coli No.29.
Test [4] has as its system Escherichia coli. Description: Antibacterial activity against gram- negative Escherichia coli NIHJ JC-2. It is filed as functional.
The subject of test [5] is Staphylococcus aureus. Description: Antibacterial activity against Staphylococcus aureus Smith.
Test [6] concerns Pseudomonas aeruginosa. Description: Antibacterial activity against gram- negative Pseudomonas […] ATCC 10145. The format is functional.
The test system of test [7] is Staphylococcus aureus. Description: Antibacterial activity against MRSA 5038.
Test [8] has as its system Staphylococcus aureus. Briefly: Antibacterial activity against gram- positive Staphylococcus aureus FDA 209P. The format is functional.
The species entered for test [9] is Mus musculus. Briefly: Antibacterial activity against mice infected with MRSA 5038 challenged with a dose of 1*10e7 cells/mouse. The format is functional.
The species named for test [10] is Mus musculus. Description: Antibacterial activity against mice infected with Staphylococcus aureus Smith challenged with a dose of 1.32*10e7 cells/mouse. The format is functional.
Test [11] relates to Staphylococcus aureus. Description: Antibacterial activity against MRSA 5129.
The subject of test [12] is Staphylococcus aureus. Briefly: Antibacterial activity against gram- positive Staphylococcus aureus MRSA 57. The format is functional.
In test [13] the test system is Pseudomonas aeruginosa. Description: Antibacterial activity against gram- negative Pseudomonas aeruginosa ATCC 10145. It is filed as functional.
The species named for test [14] is Mus musculus. Description: Antibacterial activity against mice infected with Escherichia coli No.29. It is filed as functional.
Test [15] relates to Staphylococcus aureus. Briefly: Antibacterial activity against Staphylococcus aureus Smith. This is another data set of the same source.
The subject of test [16] is Escherichia coli. Briefly: Antibacterial activity against Escherichia coli No.29. This is another data set of the same source.
The species named for test [17] is Mus musculus. Description: Antibacterial activity against mice infected with Staphylococcus aureus Smith. The format is functional.
The species named for test [18] is Mus musculus. Description: Antibacterial activity against mice infected with MRSA 5120 challenged with a dose of 7.6*10e7 cells/mouse. It is filed as functional.
In test [19] the test system is Staphylococcus aureus. Briefly: Antibacterial activity against gram- positive Staphylococcus aureus Methicillin resistant Staphylococcus aureus 57. It is filed as functional.
The test system of test [20] is Staphylococcus aureus. Description: microbe, parasite or virus in culture.
Description: Antibacterial activity against Methicillin resistant Staphylococcus aureus 5120
The species named for test [21] is Mus musculus. Briefly: Antibacterial activity against mice infected with MRSA 5038. It is filed as functional.
Test [22] has as its system Staphylococcus aureus. Briefly: Antibacterial activity against Staphylococcus aureus Smith.
Test [23] relates to Staphylococcus aureus. Description: microbe, parasite or virus in culture. The source holds these as a separate data set.
Description: Antibacterial activity against Methicillin resistant Staphylococcus aureus 5038
Test [24] deals with Staphylococcus aureus. Description: microbe, parasite or virus in culture. The source holds these as a separate data set.
Description: Antibacterial activity against Methicillin resistant Staphylococcus aureus 5129
Test [25] concerns Pseudomonas aeruginosa. Description: Antibacterial activity against Pseudomonas aeruginosa ATCC 10145. The format is functional.
For test [26], the system named is Escherichia coli. Description: Antibacterial activity against Escherichia coli NIHJ JC-2. The format is functional.

Molecules are shown by their SMILES. Values after ≈ are worked out from the molar mass of the structure shown.

Broadly, the ED50 is the midpoint of the dose-response relation. As to `C[n+]1ccc(SCC2=C(C(=O)O)N3C(=O)[C@@H](NC(=O)/C(=N/OC4CCCC4)c4csc(N)n4)[C@H]3CO2)cc1.O=S(=O)([O-])O`, the median effective dose (ED50) in test [1] is 0.09 mg/kg; in test [2], 3.91 mg/kg; in test [9], 3.4 mg/kg; in [10] it was 0.08 mg/kg. The MIC in [3] stood at 0.39 µg/mL; in test [4] it was 0.39 µg/mL; in test [5], 0.39 µg/mL; in test [6], 3.13 µg/mL; in test [7] it was 3.13 µg/mL; in test [8], 0.05 µg/mL. Also, the MIC in test [11] stood at 6.25 µg/mL; in test [12], 3.13 µg/mL.

For the compound `CO/N=C(/C(=O)N[C@@H]1C(=O)N2C(C(=O)O)=C(CSc3cc[n+](C)cc3)OC[C@H]12)c1csc(N)n1.O=S(=O)([O-])O`, the MIC is 6.25 µg/mL in [13], under 0.025 µg/mL in [4], 0.2 µg/mL in [8] and 50 µg/mL in test [12].

Turning to `CCC(=O)C[n+]1ccc(SCC2=C(C(=O)O)N3C(=O)[C@@H](NC(=O)/C(=N/OC4CCCC4)c4csc(N)n4)[C@H]3CO2)cc1.O=S(=O)([O-])O`, the ED50 in test [14] was found to be 0.15 mg/kg; in [17] it was 0.22 mg/kg; in test [18] it was 1 mg/kg. In addition, the MIC was found to be 6.25 µg/mL in test [13]; 0.39 µg/mL in test [4]; 0.2 µg/mL in test [15]; 0.2 µg/mL in test [8]; 0.39 µg/mL in test [16]; 6.25 µg/mL in test [12].

With `CO/N=C(/C(=O)N[C@@H]1C(=O)N2C(C(=O)O)=C(CSc3cc[n+](CC(C)=O)cc3)OC[C@H]12)c1csc(N)n1.O=S(=O)([O-])O`, the MIC was 12.5 µg/mL in test [13], under 0.025 µg/mL in [4], 0.39 µg/mL in test [8] and 100 µg/mL in test [12].

Take `CO[C@@]1(NC(=O)CSC(F)F)C(=O)N2C(C(=O)O)=C(CSc3nnnn3CCO)CO[C@@H]21` [FLOMOXEF]: in [14], the ED50 came to 0.43 mg/kg. The MIC in test [13] is over 100 µg/mL; in [4], 0.1 µg/mL (≈ 0.201 µM); in [15] it was 0.39 µg/mL (≈ 0.786 µM); in test [8], 0.2 µg/mL (≈ 0.403 µM); in test [16], 0.1 µg/mL (≈ 0.201 µM); in [19] it was 25 µg/mL (≈ 50.4 µM).

As for `CN[C@H](CC(C)C)C(=O)N[C@H]1C(=O)N[C@@H](CC(N)=O)C(=O)N[C@H]2C(=O)N[C@H]3C(=O)N[C@H](C(=O)N[C@H](C(=O)O)c4cc(O)cc(O)c4-c4cc3ccc4O)[C@H](O)c3ccc(c(Cl)c3)Oc3cc2cc(c3O[C@@H]2O[C@H](CO)[C@@H](O)[C@H](O)[C@H]2O[C@H]2C[C@](C)(N)[C@H](O)[C@H](C)O2)Oc2ccc(cc2Cl)[C@H]1O` [VANCOMYCIN], the MIC is 0.78 µg/mL (≈ 0.538 µM) in test [20]; 0.78 µg/mL (≈ 0.538 µM) in [22]; 1.56 µg/mL (≈ 1.08 µM) in test [23]; 0.78 µg/mL (≈ 0.538 µM) in test [24]; over 100 µg/mL in test [25]; over 100 µg/mL in test [26]. The compound also came in with an ED50 in test [21] of 2.7 mg/kg.
